{
  "source": "patent US20070253995A1",
  "about": "“Drug Delivery Methods and Devices for Treating Stress Urinary Incontinence” (Medtronic, Inc., priority 2006, published 2007)",
  "origin": "cited, not measured here",
  "system": "women with stress urinary incontinence",
  "settings": "oral formulation",
  "data": [
    {"compound": "CNCC[C@H](Oc1cccc2ccccc12)c1cccs1", "note": "[duloxetine]", "values": [
      {"measurement": "time for side effects to disappear after therapy initiation", "value": "1 to 4", "unit": "weeks"},
      {"measurement": "efficacy in treating stress urinary incontinence", "setting": "Phase III clinical trial, women", "value": "effective"},
      {"measurement": "side effects (mostly centrally mediated: nausea, headache, insomnia, dry mouth, dizziness, fatigue)", "setting": "some patients", "value": "significant side effects in some patients"}
    ]}
  ]
}
